Structures can show the parent of a compound that is named as a salt. Where two headings read alike, the source gives them in different places.
Columns and labels:
[1] = biological target: CDK2/Cyclin A (Homo sapiens, UniProt P24941); experiment: Inhibition of CDK2/Cyclin A Retinoblastoma Kinase Activity; type: biochemical; conditions: for CDK2 % Inhibition At 0.03 μM: Table 2; for Ki: apparent Ki, CDK2/proteolyzed cyclin A, Rb fragment substrate, 25 μM ATP
In short: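 Baculovirus-expressed CDK2 complexed with proteolyzed cyclin A (10 or 19 nM), Rb fragment substrate, 25 μM [32P/33P]ATP, HEPES pH 7.4, 30 °C for 60 or 75 min under initial-rate conditions. Filter capture and phosphorimager readout; apparent Ki fitted to competitive or tight-binding competitive inhibition.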

[2] = biological target: human CDK4 and genetically truncated (1-264) cyclin D3 (Homo sapiens, UniProt P11802); experiment: Inhibition of CDK4/Cyclin D Retinoblastoma Kinase Activity; type: biochemical; conditions: for Ki: apparent Ki, CDK4/truncated cyclin D3, Rb fragment substrate, 25 μM ATP
Sequence of human CDK4 and genetically truncated (1-264) cyclin D3 (P11802 whole entry, the tested form may be a part): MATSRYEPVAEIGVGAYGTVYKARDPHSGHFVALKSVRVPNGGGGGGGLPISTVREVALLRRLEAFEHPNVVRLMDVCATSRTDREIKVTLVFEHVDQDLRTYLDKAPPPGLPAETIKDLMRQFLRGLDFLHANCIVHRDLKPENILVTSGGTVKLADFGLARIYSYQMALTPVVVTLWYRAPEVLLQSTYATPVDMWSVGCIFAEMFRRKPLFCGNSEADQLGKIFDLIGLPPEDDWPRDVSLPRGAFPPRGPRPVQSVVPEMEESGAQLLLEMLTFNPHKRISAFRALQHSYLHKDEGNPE
Sequence of human CDK4 and genetically truncated (1-264) cyclin D3 (P30281 1-264 partner): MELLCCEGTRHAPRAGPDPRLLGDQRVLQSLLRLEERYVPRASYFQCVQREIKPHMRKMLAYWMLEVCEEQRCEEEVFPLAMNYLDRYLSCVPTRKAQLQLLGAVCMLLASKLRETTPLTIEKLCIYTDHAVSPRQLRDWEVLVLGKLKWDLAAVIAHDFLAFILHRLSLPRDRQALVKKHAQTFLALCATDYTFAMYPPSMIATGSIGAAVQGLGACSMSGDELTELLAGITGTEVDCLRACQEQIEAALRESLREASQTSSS
In short: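 Human CDK4/truncated cyclin D3 (1-264) complex from baculovirus-infected insect cells, 5 nM, phosphorylating Rb fragment (residues 386-928, His-tagged) with 25 μM [32/33P]ATP in HEPES pH 7.4, MgCl2, 2% DMSO at 30° C. for 20 min (60 min for tight binders). Filter-captured radioactivity by phosphorimager; apparent Ki from competitive or tight-binding fits.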

[3] = tested on: HCT-116 cell line; experiment: Inhibition of cell growth, tetrazolium salt (MTT) assay; type: cell-based; conditions: for HCT-116 % Inhibition at 0.25 μM: 0.25 μM compound; for IC50: Homo sapiens, HCT-116, 120 h, MTT, three to five days, read-out: HCT-116 IC50
In short: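 Growth inhibition by MTT reduction at 540 nm (0.2 mg/mL, 4 h at 37° C, formazan dissolved in DMSO), normalized to cells given only 0.5% v/v DMSO. HCT-116 cultures in McCoy's 5A were dosed 4 h post-plating and kept three to five days at 37° C, 5% CO2.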

[4] = 0.1 μM compound, HCT-116, Table 4
[5] = 0.03 μM compound, Table 4, 0.03 µM

CCOC(=O)CC[C@H](NC(=O)N1CCC(Nc2nc(N)c(C(=O)c3c(F)cccc3F)s2)CC1)C(=O)OCC [Example O80]
CDK2 % Inhibition At 0.03 μM ([1]; 0.03 μM compound): 23%
CDK4 % Inhibition at 0.03 μM ([2]; 0.03 μM compound, Table 2): 15%
HCT-116 % Inhibition at 0.25 μM ([3]; HCT-116, Table 2): 46%

Nc1nc(NC2CCN(C(=O)c3c[nH]cn3)CC2)sc1C(=O)c1c(F)cccc1F [Example C14, 1-{4-Amino-2-[1-(1-1H-imidazol-4-yl-methanoyl)-piperidin-4-ylamino]-thiazol-5-yl}-1-(2,6-difluoro-phenyl)-methanone]
Ki [1]: 95 nM
Ki [2]: 66 nM
IC50 ([3]; first HCT-116 column (c4)): > 5000 nM
IC50 ([3]; second HCT-116 column (c5)): > 5000 nM

COC(C(=O)N1CCC(Nc2nc(N)c(C(=O)c3c(F)cccc3F)s2)CC1)(c1ccccc1)C(F)(F)F (stereo not drawn) [Example R39]
CDK2 % Inhibition at 0.03 μM ([1]; at 0.03 μM): −6%
CDK4 % Inhibition at 0.03 μM ([2]; at 0.03 μM): 16%
HCT-116 % Inhibition at 0.1 μM ([3]; HCT-116 cells, at 0.1 μM): 5%
HCT-116 5 Inhibition at 0.25 μM ([3]; HCT-116 cells): 51

COC(=O)c1csc(S(=O)(=O)N2CCC(Nc3nc(N)c(C(=O)c4c(F)cccc4F)s3)CC2)c1OC [Example P70]
CDK2 % Inhibition at 0.03 μM ([1]; 0.03 μM compound, Table 3): 37%
CDK4 % Inhibition at 0.03 μM ([2]; 0.03 μM compound, Table 3): 60%
HCT-116 % Inhibition at 0.1 μM ([3]; 0.1 μM compound, HCT-116, Table 3): 14%
HCT-116 % Inhibition at 0.25 μM ([3]; HCT-116, Table 3): 27%

CCOC(=O)c1ccc(NC(=O)N2CCC(Nc3nc(N)c(C(=O)c4c(F)cccc4F)s3)CC2)cc1 [Example O22]
CDK2 % Inhibition At 0.03 μM ([1]; 0.03 μM compound): 34%
CDK4 % Inhibition at 0.03 μM ([2]; 0.03 μM compound, Table 2): 13%
HCT-116 % Inhibition at 0.25 μM ([3]; HCT-116, Table 2): 25%

Cc1ccc(NC(=O)N2CCC(Nc3nc(N)c(C(=O)c4c(F)cccc4F)s3)CC2)cc1 [Example O24]
CDK2 % Inhibition At 0.03 μM ([1]; 0.03 μM compound): 34%
CDK4 % Inhibition at 0.03 μM ([2]; 0.03 μM compound, Table 2): 21%
HCT-116 % Inhibition at 0.25 μM ([3]; HCT-116, Table 2): 6%

Cc1ccccc1C(=O)N1CCC(Nc2nc(N)c(C(=O)c3c(F)cccc3F)s2)CC1 [Example Q17]
CDK2 % Inhibition at 0.03 μM ([1]; 0.03 μM compound, Table 4): −11%
CDK4 % Inhibition at 0.03 μM ([2]; 0.03 μM compound, Table 4): 45%
HCT-116 % Inhibition at 0.1 μM [3, 4]: 2%
HCT-116 % Inhibition at 0.25 μM ([3]; HCT-116, Table 4): 34%

COc1ccc(NC(=O)N2CCC(Nc3nc(N)c(C(=O)c4c(F)cccc4F)s3)CC2)cc1 [Example O84]
CDK2 % Inhibition At 0.03 μM ([1]; 0.03 μM compound, 0.03 µM): 23%
CDK4 % Inhibition at 0.03 μM ([2]; 0.03 μM compound, Table 2, 0.03 µM): 14%
HCT-116 % Inhibition at 0.25 μM ([3]; HCT-116, Table 2, 0.25 µM): 42%

CC1(C)CN(c2ccc(S(=O)(=O)N3CCC(Nc4nc(N)c(C(=O)c5c(F)cccc5F)s4)CC3)cc2)CCN1 [Example G31, 1-(4-Amino-2-{1-[4-(3,3-dimethyl-piperazin-1-yl)-benzenesulfonyl]-piperidin-4-ylamino}-thiazol-5-yl)-1-(2,6-difluoro-phenyl)-methanone]
Ki [1]: 0.82 nM
Ki [2]: 0.53 nM
IC50 ([3]; first HCT-116 column (c4)): 110 nM
IC50 ([3]; second HCT-116 column (c5)): 1500 nM

Nc1nc(NC2CCN(C(=O)c3ccc(Cl)c(Cl)c3)CC2)sc1C(=O)c1c(F)cccc1F [Example R133]
CDK2 % Inhibition at 0.03 μM ([1]; at 0.03 μM): 21%
CDK4 % Inhibition at 0.03 μM ([2]; at 0.03 μM): 52%
HCT-116 % Inhibition at 0.1 μM ([3]; HCT-116 cells, at 0.1 μM): 5%
HCT-116 5 Inhibition at 0.25 μM ([3]; HCT-116 cells): 56

Nc1nc(NC2CCN(C(=O)c3cccc(Cl)c3)CC2)sc1C(=O)c1c(F)cccc1F [Example Q19]
CDK2 % Inhibition at 0.03 μM ([1]; 0.03 μM compound, Table 4): 21%
CDK4 % Inhibition at 0.03 μM ([2]; 0.03 μM compound, Table 4): 59%
HCT-116 % Inhibition at 0.1 μM [3, 4]: 32%
HCT-116 % Inhibition at 0.25 μM ([3]; HCT-116, Table 4): 83%

Nc1nc(NC2CCN(S(=O)(=O)c3ccc(OCCNC4CC4)nc3)CC2)sc1C(=O)c1c(F)cccc1F [Example H21, (4-Amino-2-{1-[6-(2-cyclopropylamino-ethoxy)-3-sulfonyl]-piperidin-4-ylamino}-thiazol-5-yl)-(2,6-difluoro-phenyl)-methanone Hydrochloride Salt]
Ki [1]: 1.5 nM
Ki [2]: 0.28 nM
IC50 ([3]; first HCT-116 column (c4)): 110 nM
IC50 ([3]; second HCT-116 column (c5)): 1500 nM

Cc1ccc(S(=O)(=O)NC(=O)N2CCC(Nc3nc(N)c(C(=O)c4c(F)cccc4F)s3)CC2)cc1 [Example O25]
CDK2 % Inhibition At 0.03 μM ([1]; 0.03 μM compound): 31%
CDK4 % Inhibition at 0.03 μM ([2]; 0.03 μM compound, Table 2): 3%
HCT-116 % Inhibition at 0.25 μM ([3]; HCT-116, Table 2): 27%

CCCCCCOc1ccc(C(=O)N2CCC(Nc3nc(N)c(C(=O)c4c(F)cccc4F)s3)CC2)cc1 [Example Q31]
CDK2 % Inhibition at 0.03 μM [1, 5]: −2%
CDK4 % Inhibition at 0.03 μM [2, 5]: 35%
HCT-116 % Inhibition at 0.1 μM [3, 4]: 8%
HCT-116 % Inhibition at 0.25 μM ([3]; HCT-116, Table 4, 0.25 µM): 41%
